From US10227344B2, “CK2 inhibitors, compositions and methods thereof” (Polaris Pharmaceuticals, Inc., priority 2016, dated 2019)
pKi: −log10 of the molar value. Counter-ions that a name gives are not always drawn.

Legend:
purified CK2α enzyme = purified CK2α enzyme (Homo sapiens, UniProt P68400); assay: CK2 Protein Kinase Inhibition Assay (coupled PK/LDH assay); format: biochemical; details: CK2 enzyme 25 nM, 100 μM ATP, 37° C., Morrison equation
Method in brief: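 Purified CK2α at 25 nM final, 1.5 mM peptide substrate, 100 μM ATP, pH 8.25 Tris buffer; compounds pre-incubated 10 min at 37° C. ADP coupled via PK/LDH to NADH loss at 340 nm over 30 min, 37° C. Ki from rate versus concentration by Morrison equation, triplicate points.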

Chain of purified CK2α enzyme (P68400 whole entry): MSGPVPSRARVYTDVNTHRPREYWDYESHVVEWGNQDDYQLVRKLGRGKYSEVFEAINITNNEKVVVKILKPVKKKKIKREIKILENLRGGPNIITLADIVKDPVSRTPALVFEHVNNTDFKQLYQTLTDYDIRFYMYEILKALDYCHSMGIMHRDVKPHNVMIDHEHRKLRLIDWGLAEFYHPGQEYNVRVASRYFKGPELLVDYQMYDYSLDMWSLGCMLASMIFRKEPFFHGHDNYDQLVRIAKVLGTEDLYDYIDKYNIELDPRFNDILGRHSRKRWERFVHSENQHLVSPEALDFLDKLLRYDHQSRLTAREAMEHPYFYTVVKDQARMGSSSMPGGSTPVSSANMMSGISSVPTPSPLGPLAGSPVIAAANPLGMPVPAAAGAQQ

Structure (SMILES) | melting point [°C] | pKi (purified CK2α enzyme)
CC(CCN)c1ccc(Nc2cc(NC3CC3)n3ncc(C#N)c3n2)cc1C[S+](C)[O-] (racemic) (as salt: trifluoroacetic acid salt) [Example 64, (±)-5-((4-(R,S)-4-Aminobutan-2-yl)-3-((methylsulfinyl)methyl)phenyl)amino)-7-(cyclopropylamino)pyrazolo[1,5-a]pyrimidine-3-carbonitrile mono trifluoroacetic acid salt] | 119 to 123 | 
CN(CC1(N)CC1)c1ccc(Nc2cc(NC3CC3)n3ncc(C#N)c3n2)cc1C[S+](C)[O-] (racemic) (as salt: trifluoroacetic acid salt) [Example 65, (±)-5-((4-(((1-Aminocyclopropyl)methyl)(methyl)amino)-3-((methylsulfinyl)methyl)phenyl)amino)-7-(cyclopropylamino)pyrazolo[1,5-a]pyrimidine-3-carbonitrile mono trifluoroacetic acid salt] | 126 to 130 | 
CN(CC(C)(C)N)c1ccc(Nc2cc(NC3CC3)n3ncc(C#N)c3n2)cc1C[S+](C)[O-] (racemic) (as salt: trifluoroacetic acid salt) [Example 67, (±)-5-((4-((2-Amino-2-methylpropyl)(methyl)amino)-3-((methylsulfinyl)methyl)phenyl)amino)-7-(cyclopropylamino)pyrazolo[1,5-a]pyrimidine-3-carbonitrile mono trifluoroacetic acid salt] | 141 to 145 | 
COc1ccc(Nc2cc(NC3CC3)n3ncc(C#N)c3n2)cc1C[S+](C)[O-] (racemic) [Example 17, (±)-7-(Cyclopropylamino)-5-((4-methoxy-3-((methylsulfinyl)methyl)phenyl)amino)pyrazolo[1,5-a]pyrimidine-3-carbonitrile] | 227 to 229 | > 8.60
C[S+]([O-])Cc1cc(Nc2cc(NC3CC3)n3ncc(C#N)c3n2)ccc1OC(F)F (racemic) [Example 19, (±)-7-(Cyclopropylamino)-5-((4-(difluoromethoxy)-3-((methylsulfinyl)methyl)phenyl)amino)pyrazolo[1,5-a]pyrimidine-3-carbonitrile] | 233 to 235 | > 8.60
C[S+]([O-])Cc1cc(Nc2cc(NC3CC3)n3ncc(C#N)c3n2)ccc1OCCN (racemic) [Example 31, (±)-5-((4-(2-aminoethoxy)-3-((methylsulfinyl)methyl)phenyl)amino)-7-(cyclopropylamino)pyrazolo[1,5-a]pyrimidine-3-carbonitrile] | 206 to 208 | > 8.60
CN(C)c1ccc(Nc2cc(NC3CC3)n3ncc(C#N)c3n2)cc1C[S+](C)[O-] (racemic) [Example 33, (±)-7-(Cyclopropylamino)-5-((4-(dimethylamino)-3-((methylsulfinyl)methyl)phenyl)amino)pyrazolo[1,5-a]pyrimidine-3-carbonitrile] | 229 to 233 | > 8.60
C[S+]([O-])Cc1cc(Nc2cc(NC3CC3)n3ncc(C#N)c3n2)ccc1N1CCC1 (racemic) [Example 37, (±)-5-((4-(Azetidin-1-yl)-3-((methylsulfinyl)methyl)phenyl)amino)-7-(cyclopropylamino)pyrazolo[1,5-a]pyrimidine-3-carbonitrile] | 204 to 207 | > 8.60
C[S+]([O-])Cc1cc(Nc2cc(NC3CC3)n3ncc(C#N)c3n2)ccc1C1=CCCNC1.O=C(O)C(F)(F)F (racemic) [Example 53, (±)-7-(cyclopropylamino)-5-((3-((methylsulfinyl)methyl)-4-(1,2,5,6-tetrahydropyridin-3-yl)phenyl)amino)pyrazolo[1,5-a]pyrimidine-3-carbonitrile mono trifluoroacetic acid salt] | 126 to 130 | 8.00 to 8.60
COc1ccc(Nc2cc(NC3CC3)n3ncc(C#N)c3n2)cc1CS(C)(=O)=O [Example 18, 7-(Cyclopropylamino)-5-((4-methoxy-3-((methylsulfonyl)methyl)phenyl)amino)pyrazolo[1,5-a]pyrimidine-3-carbonitrile] | 233 to 235 | > 8.60
CS(=O)(=O)Cc1cc(Nc2cc(NC3CC3)n3ncc(C#N)c3n2)ccc1OC(F)F [Example 20, 7-(Cyclopropylamino)-5-((4-(difluoromethoxy)-3-((methylsulfonyl)methyl)phenyl)amino)pyrazolo[1,5-a]pyrimidine-3-carbonitrile] | > 260 | > 8.60
CS(=O)(=O)Cc1cc(Nc2cc(NC3CC3)n3ncc(C#N)c3n2)ccc1OCCN.Cl [Example 26, 5-((4-(2-aminoethoxy)-3-((methylsulfonyl)methyl)phenyl)amino)-7-(cyclopropylamino)pyrazolo[1,5-a]pyrimidine-3-carbonitrile hydrochloric acid salt] | 238 to 240 | 8.00 to 8.60
CS(=O)(=O)Cc1cc(Nc2cc(NC3CC3)n3ncc(C#N)c3n2)ccc1N1CCC1 [Example 32, 5-((4-(Azetidin-1-yl)-3-((methylsulfonyl)methyl)phenyl)amino)-7-(cyclopropylamino)pyrazolo[1,5-a]pyrimidine-3-carbonitrile] | 220 to 222 | > 8.60
